Data set [1] in a line: Diffusion into thermally gelled 12% gelatin gel disc (A452 read-out), model corneal stroma. The format is physicochemical. As for the experimental part: A 12% Gelatin (Sigma G1890) Type A, 300 Bloom solution was prepared in PBS (pH7.4) by melting at 50° C. 60 μL was added to an 8.5 mm (diameter)×1 mm (deep) round Teflon mould. The Gelatin was allowed to set thermally for 10 min at 18.5° C. At 10 min, 60 μL 0.5 mM Ru(bpy)3 (0.5 mM solution in PBS) is added to the top of the thermally gelled 12% gelatin disc. The gelatin disc was covered with foil during diffusion time. Excess solution was blotted from the top of the gel using a Kimwipe. Remove gelled disc using spatula, add to 940 μL of PBS @55° C. Melt gel (30 sec)—add solution to cuvette, read A452.
If diffusion is expressed as a percentage of the total disc volume equilibrated with the applied 0.5 mM Ru(bpy)3 solution, then, assuming total mixing of the applied 60 μL solution with the 60 μL gelatin disc, 100% diffusion would represent an A452 of 0.205 [0.221−0.016=gelatin−PBS blank)]. So, diffusion to 30% of the hydrogel depth/thickness (in this case representing ca. 300 μm) would be attained in about 2.3 min. This is the desired depth of penetration of a crosslinking agent in the human cornea (by comparison with Riboflavin-based CXL methods, which require 30 minutes of diffusion).

A short description of data set [2]: Riboflavin solubility at 0.1% in PBS. The format is physicochemical.
Data set [3] can be described thus: Diffusion of Ru(bpy)3+SPS and photochemical crosslinking of 1 mm 12% gelatin hydrogel (weight after 65° C. melt). The format is physicochemical. As for the experimental part: Method: 12% Gelatin (Sigma G1890) Type A 300 Bloom in PBS (pH 7.4), was melted at 50° C. and 60 μL added to an 8.5 mm (diameter) disc×1 mm (deep) Teflon mould. The gelatin was allowed to set thermally for 10 min at 18.5° C. 60 μL of Ru(bpy)3/SPS solution (either a 0.5 mM Ru(bpy)3+50 mM SPS; a 1.0 mM Ru(bpy)3+50 mM SPS or a 2.0 mM Ru(bpy)3+50 mM SPS) was added and allowed to diffuse into the gel disc for varying times (0, 2, 4, 6, 8, 10, 14 min). Excess liquid was blotted from the top surface of the mould. At the end point of the diffusion period, the thermally set gelatin hydrogel was illuminated using a 3M ESPE blue LED lamp (1,200 mW/cm^2) for 5 sec at 1 cm distance from the light guide tip. The crosslinked gelatin hydrogel was weighed on a microbalance before being placed into a 65° C. water bath for 30 sec. Excess liquid was removed from the crosslinked hydrogel and it was again weighed to measure residual crosslinked gelatin hydrogel. A plot was prepared showing % crosslinked gelatin vs diffusion time (zero to 14 min).
Aim: To determine the time required for a solution containing Ru(bpy)3+SPS to diffuse through a 1 mm thick sheet of thermally-gelled gelatin and then to form covalent crosslinks between gelatin molecules, thus rendering the hydrogel resistant to subsequent melting at high temperature. […]

Data set [4] can be described thus: Photochemical crosslinking of corneal stroma using 3D template mould. The arrangement: species or system bovine. The note with it: 300 μL, 10 min diffusion, 20 sec 450 nm blue LED at 1 cm; 1 mM Ru(bpy)3 with or without 50 mM SPS. The method, then: The entire epithelium was debrided from a cornea. 300 μL of 1 mM Ru(bpy)3+50 mM SPS was applied to the anterior corneal surface for a diffusion time of 10 minutes (FIG. 9A). The cornea was wrapped over a metal piping nozzle, acting as a mould, and irradiated for 20 seconds using 450 nm blue LED dental lamp at a distance of 1 cm from the light guide tip (FIG. 9B).
A cornea was subject to the crosslinking protocol described in Example 3A, except that sodium persulphate (SPS) was omitted. […] In its absence, singlet oxygen radical production by short (20 sec) blue light irradiation of Ru(bpy)3 in aqueous solution is insufficient to cause any measurable covalent crosslinking of endogenous stromal proteins. In contrast, in its presence, crosslinking of endogenous corneal proteins and “molecular linkers” occurs rapidly and quantitatively.

The nature of data set [5]: Ru(bpy)3 diffusion through debrided bovine cadaver corneal stroma. The format is in vitro ADME. The note with it: PBS solution containing 0.5 mM Ru(bpy)3; 800 μm thick bovine cadaver corneal stroma; within 6 minutes. As for the experimental part: 10 fresh bull eyes were obtained from an abattoir (<10 hours old, stored at 4° C.). Using a digital caliper, the thickness of the corneas was determined to be within the range of 740 μm to 820 μm. The epithelium of the eyes was debrided with an 8 mm biopsy punch and scraped-off with a scalpel blade.
[…] Excess Ru(bpy)3 solution was removed by blotting using a fresh Kimwipe tissue.
Corneas were frozen on the surface of an aluminium block at −20° C. for 2 minutes (FIG. 7B). Transverse (bisecting) cross-sections of cornea were prepared by cutting a 1 mm thick section using a razor blade. The corneal cross-section was mounted on a glass slide to allow visualization of the cross-sectional area of the corneal stroma (FIG. 7C). Ru(bpy)3 was visualized through a red filter with illumination with a 450 nm LED light (FIG. 7).
The rate of diffusion of Ru(bpy)3 through both fresh bovine cadaver corneal stroma and through a thermally gelled 12% gelatin hydrogel (as a model corneal stromal matrix), was studied.

The record followed here is US20260240683A1, “MOLECULAR LINKERS” (CWAN TECHNOLOGIES PTY LTD, priority 2023, published 2026).

For `Cc1cc2nc3c(=O)[nH]c(=O)nc-3n(C[C@H](O)[C@H](O)[C@H](O)CO)c2cc1C` [Riboflavin, riboflavin], the “rate of diffusion through 12% gelatin hydrogel compared with 0.5 mM Ru(bpy)3 solution” value in data set [1] (Riboflavin 0.1% (2.6 mM)) is given as “slightly slower”. For the same molecule, the “solubility at 0.1% (2.6 mM)” value in data set [2] (PBS (pH 7.4)) was “=2.6 mM in PBS (pH 7.4) - not fully soluble in PBS*”; in data set [2] (PBS with NaOH added, pH ca. 8.5, RT) it was “*Added 1 μL of 10N NaOH to 2 ml of 0.1% solution in PBS - took pH to ca. 8.5 (by pH paper test). Riboflavin solution was now fully soluble at 0.1% (2.6 mM) at RT”.
Turning to `[Cl-].[Cl-].[Ru+2].c1ccc(-c2ccccn2)nc1.c1ccc(-c2ccccn2)nc1.c1ccc(-c2ccccn2)nc1` [Ru(bpy)3, ruthenium (tris)bipyridyl chloride], the “time to diffuse through the entire 1.0 mm thickness of 12% (w/v) gelatin hydrogel” value in data set [3] (Ru(bpy)3+50 mM SPS solutions (0.5, 1.0, 2.0 mM)) was not above 6 min. Moreover, the “covalent crosslinking of gelatin hydrogel after the diffusion step” value in data set [3] (Ru(bpy)3+SPS, 5 second illumination with 450 nm blue LED lamp) is “entire gelatin hydrogel can be covalently crosslinked”. For the same molecule, in data set [4], the “formation of templated 3D structure of cornea after photo-crosslinking on mould” value is given as “no mould template structure was formed”. In addition, the “time to diffuse to 30% of the hydrogel depth/thickness (ca. 300 μm)” value in data set [1] (0.5 mM Ru(bpy)3 in PBS, 60 μL on 1 mm deep 12% gelatin disc) is listed as “about 2.3 min”. Further, the “depth of free diffusion through corneal stroma” value in data set [5] was determined as 400 μm.
